Measured values: ChEMBL document CHEMBL5500375, “Design, synthesis, and evaluation of N1,N3-dialkyldioxonaphthoimidazoliums as antibacterial agents against methicillin-resistant Staphylococcus aureus” (Eur J Med Chem, 2024)
In brackets after ≈: the same amount, converted by molar mass. Activity calls are given as the source filed them. The rule behind the calls is not given here.

Experiments:
[1] = tested on: Staphylococcus aureus; assay: Antibacterial agents against methicillin-resistant Staphylococcus aureus SA3 assessed as absence of growth measured after 18 hrs by micro-dilution method; format: functional
[2] = tested on: Staphylococcus aureus; assay: Antibacterial agents against methicillin-sensitive Staphylococcus aureus Newman assessed as absence of growth measured after 18 hrs by micro-dilution method; format: functional
[3] = tested on: Bacillus subtilis; assay: Antibacterial agents against Bacillus subtilis PS380 assessed as absence of growth measured after 18 hrs by micro-dilution method; format: functional
[4] = tested on: Staphylococcus aureus; assay: Antibacterial agents against methicillin-resistant Staphylococcus aureus USA300 assessed as absence of growth measured after 18 hrs by micro-dilution method; format: functional
[5] = tested on: Staphylococcus aureus; assay: Antibacterial agents against methicillin-sensitive Staphylococcus aureus SA1 assessed as absence of growth measured after 18 hrs by micro-dilution method; format: functional
[6] = Metabolic stability in human liver microsomes assessed as half life at 2 uM preincubated for 5 mins followed by NADPH addition and measured for 35 mins by LC/MS analysis; format: ADME, Microsome; conditions: preincubation 5 min
[7] = In vivo toxicity in Drosophila melanogaster strain Oregon R assessed as survival rate at 0.1 to 1 mg/ml measured upto 72 hrs relative to control; format: organism-based; conditions: dose 0.1-1 mg/ml; for Activity: 72 h
[8] = Metabolic stability in human liver microsomes assessed as intrinsic clearance at 2 uM preincubated for 5 mins followed by NADPH addition and measured for 35 mins by LC/MS analysis; format: ADME, Microsome; conditions: read-out: CLH
[9] = tested on: Escherichia coli; assay: Antibacterial agents against gram negative Escherichia coli MG1655 assessed as reduction in colony forming unit at 0.05 to 0.2 ug/ml measured upto 10 hrs by LB agar medium method; format: functional, organism-based; conditions: dose 0.05-0.2 µg/ml
[10] = tested on: Pseudomonas aeruginosa; assay: Antibacterial agents against gram negative Pseudomonas aeruginosa PA14 assessed as reduction in colony forming unit at 0.05 to 0.2 ug/ml measured upto 10 hrs by LB agar medium method; format: functional, organism-based; conditions: dose 0.05-0.2 µg/ml
[11] = tested on: Staphylococcus aureus; assay: In vivo antibacterial activity against methicillin-resistant Staphylococcus aureus SA3 infected in dorsal thorax of Drosophila melanogaster strain Oregon R assessed as median survival time of Drosophila at 0.04 to 0.2 mg/ml measured upto 72 hrs; format: functional; conditions: dose 0.04-0.2 mg/ml
[12] = tested on: Staphylococcus aureus; assay: In vivo antibacterial activity against methicillin-resistant Staphylococcus aureus SA3 infected in dorsal thorax of Drosophila melanogaster strain Oregon R assessed as survival time of Drosophila at 0.2 mg/ml measured upto 72 hrs; format: functional
[13] = tested on: Staphylococcus aureus; assay: Reduction in virulent activity of methicillin-resistant Staphylococcus aureus SA3 infected in dorsal thorax of Drosophila melanogaster strain Oregon R at 0.2 mg/ml measured upto 72 hrs; format: functional, organism-based
[14] = tested on: Staphylococcus aureus; assay: Antibacterial agents against c5-resistant mutant of methicillin-resistant Staphylococcus aureus SA3 m1 assessed as absence of growth measured after 18 hrs by micro-dilution method; format: functional
[15] = tested on: Staphylococcus aureus; assay: Antibacterial agents against c5-resistant mutant of methicillin-resistant Staphylococcus aureus SA3 m4 assessed as absence of growth measured after 18 hrs by micro-dilution method; format: functional
[16] = tested on: Staphylococcus aureus; assay: Antibacterial agents against c5-resistant mutant of methicillin-resistant Staphylococcus aureus SA3 m2 assessed as absence of growth measured after 18 hrs by micro-dilution method; format: functional
[17] = tested on: Staphylococcus aureus; assay: Induction of ROS generation in methicillin-resistant Staphylococcus aureus USA300 using hydroxyphenyl fluorescein at 0.09 ug/ml under anaerobic condition; format: functional, organism-based; conditions: dose 0.09 µg/ml, TDE = time-dependent effect
[18] = tested on: Staphylococcus aureus; assay: Antibacterial agents against c5-resistant mutant of methicillin-resistant Staphylococcus aureus SA3 m3 assessed as absence of growth measured after 18 hrs by micro-dilution method; format: functional
[19] = tested on: Staphylococcus aureus; assay: Induction of ROS generation in methicillin-resistant Staphylococcus aureus SA3 using hydroxyphenyl fluorescein at 0.09 ug/ml under anaerobic condition; format: functional, organism-based; conditions: dose 0.09 µg/ml, TDE = time-dependent effect

Row | Compound | MIC [1] [µg/mL] | MIC [3] [µg/mL] | MIC [5] [µg/mL] | other results
1 | CCCCn1c2c([n+](C3CCCCC3)c1C)C(=O)c1ccccc1C2=O.[Br-] | 25 | – | – | –
2 | CCCCCCCCn1c2c([n+](Cc3ccco3)c1C)C(=O)c1ccccc1C2=O.[Br-] | 0.39 | 0.39 | 0.39 | MIC [2]: 0.39 µg/mL; MIC [4]: 0.39 µg/mL; half-life at 2 µM [6]: 16.1 min; Activity [7]: Toxic; CLint scaled at 2 µM [8]: 95 mL/min/kg
3 | CCCCn1c2c([n+](Cc3ccco3)c1C)C(=O)c1ccccc1C2=O.[Br-] | 6.25 | – | – | –
4 | CCn1c2c([n+](Cc3ccccc3)c1C)C(=O)c1ccccc1C2=O.[Br-] | 3.13 | – | – | –
5 | CCCCCCCCn1c2c([n+](CCCC)c1C)C(=O)c1ccccc1C2=O.[Br-] | 0.39 | 0.39 | 0.39 | MIC [2]: 0.39 µg/mL; MIC [4]: 0.39 µg/mL; half-life at 2 µM [6]: 11.6 min; Activity [7]: Non-Toxic; CLint scaled at 2 µM [8]: 125 mL/min/kg
6 | Cc1n(CC(C)C)c2c([n+]1Cc1ccccc1)C(=O)c1ccccc1C2=O.[Br-] | 3.13 | – | – | –
7 | CCCCCn1c2c([n+](Cc3ccco3)c1C)C(=O)c1ccccc1C2=O.[Br-] | 3.13 | – | – | –
8 | POLYMYXIN B | – | – | – | Activity [9]: inactive; Activity [10]: inactive
9 | CCCCCCCCn1c2c([n+](CCCCCCCC)c1C)C(=O)c1ccccc1C2=O.[Br-] | 3.13 | – | – | –
10 | Cc1n(CC2CC2)c2c([n+]1Cc1ccccc1)C(=O)c1ccccc1C2=O.[Br-] | 1.56 | 1.56 | 0.78 | –
11 | CCCCCCCCCCn1c2c([n+](Cc3ccccc3)c1C)C(=O)c1ccccc1C2=O.[Br-] | 0.39 | 1.56 | 0.39 | MIC [2]: 0.39 µg/mL; MIC [4]: 0.39 µg/mL; half-life at 2 µM [6]: 13.2 min; Activity [7]: Toxic; CLint scaled at 2 µM [8]: 103 mL/min/kg
12 | Cc1n(CC2CCCCC2)c2c([n+]1Cc1ccccc1)C(=O)c1ccccc1C2=O.[Br-] | 1.56 | 0.78 | 1.56 | –
13 | CCCCCCCn1c2c([n+](Cc3ccccc3)c1C)C(=O)c1ccccc1C2=O.[Br-] | 0.78 | 0.78 | 0.39 | MIC [2]: 0.39 µg/mL; MIC [4]: 0.78 µg/mL; half-life at 2 µM [6]: 15.6 min; survival at 72 h ([7]; Oregon R, at 0.1 to 1 mg/mL): 75%; CLint scaled at 2 µM [8]: 101 mL/min/kg
14 | CCCCCn1c2c([n+](CCCCC)c1C)C(=O)c1ccccc1C2=O.[Br-] | 3.13 | – | – | –
15 | CCCCCn1c2c([n+](Cc3ccccc3)c1C)C(=O)c1ccccc1C2=O.[Br-] | 1.56 | 6.25 | 3.13 | –
16 | CCCC[n+]1c2c(n(CC(C)C)c1C)C(=O)c1ccccc1C2=O.[Br-] | 3.13 | – | – | –
17 | CCCCn1c2c([n+](Cc3ccccc3)c1C)C(=O)c1ccccc1C2=O.[Br-] | 12.5 | – | – | –
18 | CCCCCC[n+]1c2c(n(CCCC)c1C)C(=O)c1ccccc1C2=O.[Br-] | 3.13 | – | – | –
19 | Cc1n(C2CCCCCC2)c2c([n+]1Cc1ccccc1)C(=O)c1ccccc1C2=O.[Br-] | 6.25 | – | – | –
20 | CCCC[n+]1c2c(n(C3CCC3)c1C)C(=O)c1ccccc1C2=O.[Br-] | 25 | – | – | –
21 | CCCn1c2c([n+](Cc3ccco3)c1C)C(=O)c1ccccc1C2=O.[Br-] | 12.5 | – | – | –
22 | CCCCCCn1c2c([n+](CCCCCC)c1C)C(=O)c1ccccc1C2=O.[Br-] | 0.78 | 1.56 | 0.78 | MIC [2]: 0.78 µg/mL; MIC [4]: 0.78 µg/mL
23 | Cc1n(C(C)C)c2c([n+]1Cc1ccccc1)C(=O)c1ccccc1C2=O.[Br-] | 3.13 | – | – | –
24 | CN[C@H](CC(C)C)C(=O)N[C@H]1C(=O)N[C@@H](CC(N)=O)C(=O)N[C@H]2C(=O)N[C@H]3C(=O)N[C@H](C(=O)N[C@H](C(=O)O)c4cc(O)cc(O)c4-c4cc3ccc4O)[C@H](O)c3ccc(c(Cl)c3)Oc3cc2cc(c3O[C@@H]2O[C@H](CO)[C@@H](O)[C@H](O)[C@H]2O[C@H]2C[C@](C)(N)[C@H](O)[C@H](C)O2)Oc2ccc(cc2Cl)[C@H]1O [VANCOMYCIN] | 6.25 (≈ 4.31 µM) | 0.19 (≈ 0.131 µM) | 1.56 (≈ 1.08 µM) | Time [11]: 40 h; MIC [2]: 1.56 µg/mL (≈ 1.08 µM); Time [12]: 54 h; MIC [4]: 6.25 µg/mL (≈ 4.31 µM); Activity [13]: inactive

Row | Compound | MIC [1] [µg/mL] | MIC [3] [µg/mL] | MIC [5] [µg/mL] | other results
25 | Cc1n(C(C)(C)C)c2c([n+]1Cc1ccccc1)C(=O)c1ccccc1C2=O.[Br-] | 3.13 | – | – | –
26 | CCCCCCCn1c2c([n+](CCCCCCC)c1C)C(=O)c1ccccc1C2=O.[Br-] | 0.39 | 0.39 | 0.39 | MIC [2]: 0.39 µg/mL; MIC [4]: 0.39 µg/mL; half-life at 2 µM [6]: 17.4 min; Activity [7]: Non-Toxic; CLint scaled at 2 µM [8]: 77 mL/min/kg
27 | CCCCCn1c2c([n+](CCCC)c1C)C(=O)c1ccccc1C2=O.[Br-] | 3.13 | – | – | –
28 | CCCCCCCCCn1c2c([n+](CCCC)c1C)C(=O)c1ccccc1C2=O.[Br-] | 3.13 | – | – | –
29 | CCCCn1c2c([n+](CC3CCCCC3)c1C)C(=O)c1ccccc1C2=O.[Br-] | 3.13 | – | – | –
30 | CCCC[n+]1c2c(n(C(C)C)c1C)C(=O)c1ccccc1C2=O.[Br-] | 3.13 | – | – | –
31 | Cc1n(C2CCCCC2)c2c([n+]1Cc1ccccc1)C(=O)c1ccccc1C2=O.[Br-] | 1.56 | 1.56 | 0.78 | –
32 | CCCCCC[n+]1c2c(n(CCOC)c1C)C(=O)c1ccccc1C2=O.[Br-] | 6.25 | 6.25 | 6.25 | Time [11]: 38 h; MIC [2]: 6.25 µg/mL; MIC [14]: > 50 µg/mL; Time [12]: 54 h; MIC [15]: > 50 µg/mL; MIC [4]: 6.25 µg/mL; MIC [16]: > 50 µg/mL; Activity [17]: Tde; Activity [13]: inactive; half-life at 2 µM [6]: 33.7 min; MIC [18]: > 50 µg/mL; CLint scaled at 2 µM [8]: 37 mL/min/kg; Activity [19]: Tde
33 | CCCCCCCCCCn1c2c([n+](CCCC)c1C)C(=O)c1ccccc1C2=O.[Br-] | 3.13 | – | – | –
34 | CCCCCCn1c2c([n+](Cc3ccco3)c1C)C(=O)c1ccccc1C2=O.[Br-] | 0.78 | 3.13 | 0.78 | –
35 | CCCC[n+]1c2c(n(CC3CC3)c1C)C(=O)c1ccccc1C2=O.[Br-] | 12.5 | – | – | –
36 | CCCCCCCn1c2c([n+](Cc3ccco3)c1C)C(=O)c1ccccc1C2=O.[Br-] | 0.78 | 0.78 | 0.78 | MIC [2]: 0.78 µg/mL; MIC [4]: 0.78 µg/mL; half-life at 2 µM [6]: 55.1 min; Activity [7]: Non-Toxic; CLint scaled at 2 µM [8]: 24 mL/min/kg
37 | CCCCCCCCCn1c2c([n+](Cc3ccccc3)c1C)C(=O)c1ccccc1C2=O.[Br-] | 0.39 | 1.56 | 0.39 | MIC [2]: 0.39 µg/mL; MIC [4]: 0.39 µg/mL; half-life at 2 µM [6]: 51.8 min; Activity [7]: Toxic; CLint scaled at 2 µM [8]: 26 mL/min/kg
38 | Cc1n(C2CCC2)c2c([n+]1Cc1ccccc1)C(=O)c1ccccc1C2=O.[Br-] | 3.13 | – | – | –
39 | CCn1c2c([n+](Cc3ccco3)c1C)C(=O)c1ccccc1C2=O.[Br-] | 12.5 | – | – | –
40 | CCCCCCn1c2c([n+](Cc3ccccc3)c1C)C(=O)c1ccccc1C2=O.[Br-] | 0.78 | 0.78 | 0.78 | –
41 | Cc1n(C2CC2)c2c([n+]1Cc1ccccc1)C(=O)c1ccccc1C2=O.[Br-] | 6.25 | – | – | –
42 | Cc1n(Cc2ccco2)c2c([n+]1Cc1ccccc1)C(=O)c1ccccc1C2=O.[Br-] | 6.25 | – | – | –
43 | COCC[n+]1c2c(n(Cc3cnccn3)c1C)C(=O)c1ccccc1C2=O.[Br-] [SEPANTRONIUM BROMIDE] | 50 | – | – | –
44 | Cc1n(C2CCCC2)c2c([n+]1Cc1ccccc1)C(=O)c1ccccc1C2=O.[Br-] | 12.5 | – | – | –
45 | CCCCCCCn1c2c([n+](CCCC)c1C)C(=O)c1ccccc1C2=O.[Br-] | 0.78 | 0.39 | 0.78 | –
46 | CCCC[n+]1c2c(n(C(C)(C)C)c1C)C(=O)c1ccccc1C2=O.[Br-] | 6.25 | – | – | –
47 | CCCn1c2c([n+](Cc3ccccc3)c1C)C(=O)c1ccccc1C2=O.[Br-] | 6.25 | – | – | –
